In patent US20250387417A1, “CANNABINOID DERIVATIVES AND COMPOSITIONS COMPRISING SAME” (CANNASOUL ANALYTICS LTD., priority 2022, published 2025):

Tested on: MCP-1 secretion
Assay: Acute inflammation: LPS-induced MCP-1 secretion in human colon epithelial cells (ELISA)
Assay type: cell-based
Settings: 10 ng/ml LPS, 24 hours, ELISA of supernatants, FIG. 1
Procedure: The efficacy of the compounds according to certain embodiments of the present invention in the treatment of IBD was assessed. Human colon epithelial cells were thawed and cultured in suitable media at a final concentration of 4×10^5 cells per mL. The cells were then cultured and tested in triplicates for 48 hours. Following incubation, controls and test compounds were diluted in culture media to achieve the final assay concentration. Cells were treated with 10 ng/ml LPS with or without positive control/test compounds and incubated for 24 hours. Rosiglitazone at 7.2 μg/ml served as a positive control. Following incubation, the supernatants were collected, and the secretion levels of MCP-1 were measured by ELISA (R&D systems). Optical density was determined by ‘CLARIOStar-plus’® plate-reader. The chemokine concentration (pg/ml) was calculated using a standard curve.

| Structure (SMILES) | inhibition of MCP-1 secretion | inhibitory effect on MCP-1 secretion compared among the test compounds |
| --- | --- | --- |
| CCCCCCc1cc(O)c(C/C=C(\C)CCC=C(C)C)c(O)c1OC(C)=O [(E)-3-(3,7-dimethylocta-2,6-dien-1-yl)-6-hexyl-2,4-dihydroxyphenyl acetate] | effectively inhibited MCP-1 secretion in a statistically significant manner |  |
| CCCCCc1cc(O)c(CC=C(C)C)c(O)c1OC(C)=O [Compound 15] | effectively inhibited MCP-1 secretion in a statistically significant manner | most pronounced inhibitory effect on MCP-1 secretion |
| CCCCCc1cc(O)c(C2C=C(C)CCC2C(C)(C)O)c(O)c1OC(C)=O (stereo not shown) [Compound 17] | effectively inhibited MCP-1 secretion in a statistically significant manner |  |
